Assay results taken from patent publication US20240252673A1, “ANTI-TISSUE FACTOR ANTIBODY-DRUG CONJUGATES AND THEIR USE IN THE TREATMENT OF CANCER” (priority 2017, published 2024).

Tests used:
Assay type in all cases: in vivo, human
[1] = tested on: tisotumab vedotin treated patients; assay: Adverse events of special interest reported in tisotumab vedotin treated patients
Excerpt: Three adverse events of special interest are ocular adverse events, adverse events of peripheral neuropathy, and adverse events of bleeding. […] Severe cases (CTCAE grade 3) of conjunctivitis and keratitis are observed, however implementation of a comprehensive mitigation plan and preventive measures substantially reduce both the frequency and severity of ocular adverse reactions. In order to prevent ocular AEs, the following ocular pre-medication guidelines are followed: use of preservative-free lubricating eye drops from the start of treatment with tisotumab vedotin until the end of treatment; avoid use of contact lenses while treated with tisotumab vedotin; use of refrigerator-based eye cooling pads during infusion, e.g. THERA PEARL Eye Mask or similar, to be applied immediately before infusion in accordance with the instructions provided with the eye cooling pads; administration of local ocular vasoconstrictor before infusion (brimonidine tartrate 0.2% eye drops or similar, 3 drops in each eye immediately prior to start of infusion; otherwise to be used in accordance with the product prescribing information).
A mitigation plan, including dose reduction (see Table 9) and dose delay (i.e., hold dosing until event has improved to ≤grade 1), is in place to prevent onset of peripheral neuropathy as well as deterioration of pre-existing conditions. For AEs of bleeding: Bleeding events are considered of special interest due to the mode of action of tisotumab vedotin. […] Excluding epistaxis, no causal relation has been established for the majority of the reported bleeding events and treatment with tisotumab vedotin.

[2] = tested on: locally advanced and/or metastatic cancer of various types including cervical cancer; assay: Phase I/II dose-escalation study: anti-tumor activity per RECIST v1.1 (CT scans every six weeks)
Description: (§1) A first-in-human phase I/II dose-escalating study following a 3+3 dose-escalation design was conducted in order to test the safety of tisotumab vedotin in 27 subjects with locally advanced and/or metastatic cancer of various types including cervical cancer (FIG. 2). Tisotumab vedotin was administered by intravenous infusion at doses ranging from 0.3 mg/kg to 2.2 mg/kg on day 1 of a 21-day cycle for four cycles (i.e., each treatment cycle was 3 weeks). Patients with stable disease (SD) or better at the end of four cycles had the option to continue treatment with tisotumab vedotin for eight additional cycles (FIG. 2). Tumor evaluations were performed by CT scans every six weeks. In order to qualify for SD, results of the CT scan scheduled for week six needed to be SD or better. Two CT scans were performed outside the per-protocol defined window.
(§2) A primary objective of the study was to assess the safety and tolerability in a mixed population of patients with specified solid tumors. Adverse event (AE) severity was graded according to Common Terminology Criteria for Adverse Events (CTCAE) version 4.03. Secondary objectives of the study included determining the pharmacokinetic (PK) profile of tisotumab vedotin and preliminary evaluation of anti-tumor activity as assessed according to Response Evaluation Criteria in Solid Tumors [RECIST] version 1.1. Dose-limiting toxicities (DLTs) were determined during the first cycle and were defined as grade≥3 events possibly related to tisotumab vedotin. […] Tumor biopsies were required at baseline for TF expression which was assessed by immunohistochemistry utilizing tisotumab. TF staining intensity was determined using the H-scoring system.

[3] = Phase I/II dose-escalation study: plasma pharmacokinetics; conditions: cycle 1, plasma, geometric mean (% CV)
Description: as §1, §2
The geometric means (% CV) of the time to reach Cmax (Tmax)(hr), maximum concentration (Cmax)(ng/mL), and area under the concentration time curve (AUC)0-t (hr*ng/mL) was measured for the pharmacokinetics (PK) portion of the study (Table 3). Low levels of unconjugated MMAE were measured in systemic circulation (FIG. 4).

[4] = Patient 2, cervical cancer, 1.2 mg/kg

tisotumab vedotin
AEs of grade 1-2 conjunctivitis ([1]; human, in vivo): frequently reported | impact on activated partial thromboplastin time (aPTT) or prothrombin time (PT) ([1]; human, in vivo): no major impact | peripheral neuropathy, grade of the reported cases ([1]; leading cause of permanent discontinuation): majority of the reported cases are grade 1-2 | Epistaxis ([1]; nearly all of the cases are grade 1): most common reported AE | Confirmed Response per RECIST v1.1: Complete response (CR) ([2]; 0.3 mg/kg (n = 3)): 0 n | Confirmed Response per RECIST v1.1: Not evaluable ([2]; 0.3 mg/kg (n = 3)): 0 n | Confirmed Response per RECIST v1.1: Partial response (PR) ([2]; 0.3 mg/kg (n = 3)): 0 n | Confirmed Response per RECIST v1.1: Complete response (CR) ([2]; 0.6 mg/kg (n = 3)): 0 n | Confirmed Response per RECIST v1.1: Partial response (PR) ([2]; 0.6 mg/kg (n = 3)): 0 n | Confirmed Response per RECIST v1.1: Complete response (CR) ([2]; 0.9 mg/kg (n = 3)): 0 n | Confirmed Response per RECIST v1.1: Not evaluable ([2]; 0.9 mg/kg (n = 3)): 0 n | Confirmed Response per RECIST v1.1: Partial response (PR) ([2]; 0.9 mg/kg (n = 3)): 0 n | Confirmed Response per RECIST v1.1: Complete response (CR) ([2]; 1.2 mg/kg (n = 3)): 0 n | Confirmed Response per RECIST v1.1: Not evaluable ([2]; 1.2 mg/kg (n = 3)): 0 n | Confirmed Response per RECIST v1.1: Complete response (CR) ([2]; 1.5 mg/kg (n = 3)): 0 n | Confirmed Response per RECIST v1.1: Not evaluable ([2]; 1.5 mg/kg (n = 3)): 0 n | Confirmed Response per RECIST v1.1: Partial response (PR) ([2]; 1.5 mg/kg (n = 3)): 0 n | Confirmed Response per RECIST v1.1: Complete response (CR) ([2]; 1.8 mg/kg (n = 3)): 0 n | Confirmed Response per RECIST v1.1: Not evaluable ([2]; 1.8 mg/kg (n = 3)): 0 n | Confirmed Response per RECIST v1.1: Partial response (PR) ([2]; 1.8 mg/kg (n = 3)): 0 n | Confirmed Response per RECIST v1.1: Progressive disease (PD) ([2]; 1.8 mg/kg (n = 3)): 0 n | Confirmed Response per RECIST v1.1: Complete response (CR) ([2]; 2.0 mg/kg (n = 3)): 0 n | Confirmed Response per RECIST v1.1: Not evaluable ([2]; 2.0 mg/kg (n = 3)): 0 n | Confirmed Response per RECIST v1.1: Partial response (PR) ([2]; 2.0 mg/kg (n = 3)): 0 n | Confirmed Response per RECIST v1.1: Complete response (CR) ([2]; 2.2 mg/kg (n = 6)): 0 n | Confirmed Response per RECIST v1.1: Not evaluable ([2]; 2.2 mg/kg (n = 6)): 0 n | Confirmed Response per RECIST v1.1: Partial response (PR) ([2]; 2.2 mg/kg (n = 6)): 0 n | reduction in tumor size relative to baseline ([2]; Patient 1, cervical cancer, 2.2 mg/kg): about 20% | best response [2, 4]: confirmed PR | continued benefit, total duration [2, 4]: 15 months | reduction in tumor size relative to baseline (target lesion) ([2]; Patient 2, stage 4 cervical cancer, 3 prior lines, 1.2 mg/kg): about 51% | Confirmed Response per RECIST v1.1: Complete response (CR) ([2]; all doses (n = 27)): 0 n | disease control rate (DCR; PR+SD) ([2]; all doses, 26 patients evaluated): 46% | patients withdrew from treatment due to disease progression ([2]; all doses, 27 patients): 67% | disease control rate (DCR; PR+SD), patients ([2]; all doses, out of 26 patients): 12 patients | AUC0-t ([3]; 0.3 mg/kg, N 3): 59216.8 (3%) hr * ng/ml | Cmax ([3]; 0.3 mg/kg, N 3): 4782.7 (12%) ng/ml | Tmax ([3]; 0.3 mg/kg, N 3): 1.5 (73%) hr | AUC0-t ([3]; 0.6 mg/kg, N 3): 368432.7 (8%) hr * ng/ml | Cmax ([3]; 0.6 mg/kg, N 3): 12195.3 (10%) ng/ml | Tmax ([3]; 0.6 mg/kg, N 3): 1.2 (13%) hr | AUC0-t ([3]; 0.9 mg/kg, N 3): 601926.2 (17%) hr * ng/ml | Cmax ([3]; 0.9 mg/kg, N 3): 19811.6 (17%) ng/ml | Tmax ([3]; 0.9 mg/kg, N 3): 1.3 (12%) hr | AUC0-t ([3]; 1.2 mg/kg, N 3): 1084672.7 (9%) hr * ng/ml | Cmax ([3]; 1.2 mg/kg, N 3): 34673.1 (19%) ng/ml | Tmax ([3]; 1.2 mg/kg, N 3): 1.3 (12%) hr | AUC0-t ([3]; 1.5 mg/kg, N 3): 794988.4 (19%) hr * ng/ml | Cmax ([3]; 1.5 mg/kg, N 3): 23115.6 (21%) ng/ml | Tmax ([3]; 1.5 mg/kg, N 3): 1.1 (9.6%) hr | AUC0-t ([3]; 1.8 mg/kg, N 3): 1504823.8 (50%) hr * ng/ml | Cmax ([3]; 1.8 mg/kg, N 3): 35416.3 (39%) ng/ml | Tmax ([3]; 1.8 mg/kg, N 3): 1.2 (14%) hr | AUC0-t ([3]; 2.0 mg/kg, N 3): 1256379.7 (33%) hr * ng/ml | Cmax ([3]; 2.0 mg/kg, N 3): 32296.1 (22%) ng/ml | Tmax ([3]; 2.0 mg/kg, N 3): 1.2 (8%) hr | AUC0-t ([3]; 2.2 mg/kg, N 6): 2037070.5 (34%) hr * ng/ml | Cmax ([3]; 2.2 mg/kg, N 6): 55530.3 (10%) ng/ml | Tmax ([3]; 2.2 mg/kg, N 6): 1.1 (13%) hr
